4 molecules from patent US20250296922A1, “POLYSUBSTITUTED PYRROLIDINE DERIVATIVE, PREPARATION METHOD THEREFOR AND USE THEREOF” (SHANGHAI WENNAI THERAPEUTICS CO LTD, priority 2023, published 2025) can be followed below.

Where two headings read alike, the source gives them in different places.

Common to all, as to format: in vitro ADME
Series [1] can be described thus: Stability of the compound in liver microsomes (human). To be noted: 1 μM compound, 0.5 mg protein/mL; for Human liver microsomes T½ / half-life at 1 μM: 37° C.; for half-life at 1 μM: human, liver microsomes, read-out: Human liver microsomes T½. The method, then: 2.1.1. working solution: 5 μL of test or control compound stock solution (10 mM DMSO solution) was diluted with 495 μL of acetonitrile (ACN) to obtain an intermediate stock solution (100 μM, 99% ACN).
2.2.2 Preparation procedure: An appropriate amount of NADPH powder was weighed and diluted with 10 mM MgCl2 buffer (working solution concentration: 10 mM; final reaction system concentration: 1 mM).
2.3.2 Preparation procedure: The appropriate concentration of liver microsomal working solution was prepared in 100 mM potassium phosphate buffer;
Acetonitrile (ACN) solution at 4° C. containing 200 ng/mL of Tolbutamide and 200 ng/ml of labetalol as internal standards 2.5. Operation steps:
2.5.2. Diluting liver microsomes with 100 mM potassium phosphate buffer to a concentration of 0.56 mg/mL.
2.5.3. Transferring 445 μL of liver microsomal working solution (0.56 mg/mL) to pre-heated incubation plates T60 and NCF60, and then pre-heating the incubation plates T60 and NCF60 for 10 minutes at 37° C. with shaking. Transferring 54 μL of liver microsomes to each well of the blank plate, adding 6 μL of NAPDH coenzyme solution to the blank plate, and finally transferring 180 μL of termination solution to the blank plate.
2.5.4 Adding 5 μL of compound working solution (100 μM) to the incubation plates T60 and NCF60 containing liver microsomes and mixing three times.
2.5.5. Adding 50 μL of buffer to the NCF60 plate and mixing three times, starting the timer and incubating at 37° C. for 60 min with the plate shaking.
2.5.6. Adding 180 μL of quenching solution and 6 μL of NAPDH coenzyme working solution sequentially to quenching plate TO, making sure that the plate was cold to prevent volatilization of the incubation solution.
2.5.7. For plate T60, mixing well three times and immediately transferring 54 μL of mixing solution (0-min time point) to quenching plate TO, then adding 44 μL of NAPDH coenzyme working solution to incubation plate T60. Starting the timer:
2.5.8. At the 5, 15, 30, 45 and 60 minute time points, adding 180 μL of quenching solution to the quenching plate and transferring 60 μL of reaction solution from the T60 plate to the quenching plate at each time point.
2.5.9. For NCF60 plates, mixing well and transferring 60 μL of reaction solution from the NCF60 incubating solution to a quenching plate containing 180 μL of quenching solution at 60th minute.
2.5.10. All plates were mixed on a shaker for 10 min and then centrifuged at 4000 rpm at 4° C. for 20 min.
2.5.11. Transferring 80 μL of supernatant to 240 μL of HPLC water and mixing on a
2.6.1. Calculating t1/2 and Clint (mic) values based on first-order elimination kinetics: […]

A further series has as its target CYP1A2 (Homo sapiens (Human), UniProt P05177). As to the kind of experiment: Human liver microsomal CYP inhibition test, CYP1A2. The method, then:
(§1) 3.1 Buffer solutions: (1) potassium phosphate 100 mM; (2) magnesium chloride, 33 mM;
(§2) 3.2.3 Reservoir for compounds to be tested: Dissolving the compounds to be tested in DMSO to form a 10 mM DMSO solution.
(§3) 3.4.1 Preparation of human liver microsomal working solution (1.27×) (final concentration: 0.2 mg/mL)
(§4) 3.5.3 Adding 20 μL of substrate solution to the appropriate wells and 20 μL of potassium phosphate buffer to the blank wells;
(§5) 3.5.4 Adding 2 μL of different concentrations of target compounds (final concentrations from 0.05 μM to 50 μM, 7 concentrations in total) or standard inhibitors to each well, with 2 μL of methanol solution in the non-inhibitor and blank wells;
(§6) 3.5.5 Adding 1.012 mL of liver microsomes to 78.988 mL of potassium phosphate buffer, then adding 158 μL of liver microsomes solution to all wells; preheating the well plate for 10 minutes in a 37° C. water bath;
(§7) 3.5.6 Weighing 129.1 mg NADPH (purchased from SyncoZymes Co. Ltd.) and adding to 15.0 mL of 33 Mm MgCl2 solution to give a 10 mM concentration, adding 20 μL to each well;
(§8) 3.5.7 Mixing and incubating the well plate in a 37° C. water bath for 10 minutes, then adding 400 μL of cold termination solution at the appropriate time point;
(§9) 3.5.8 Centrifuging the sample at 4000 rpm for 20 minutes to precipitate the protein. Transferring 200 μL of supernatant to 100 μL of HPLC water and shaking for 10 minutes. The samples were analyzed by LC/MS/MS;
(§10) Percentage inhibition was plotted for blank control and different concentrations of target compounds by using XL fitting or SigmaPlot and the data were analyzed by non-linear regression. IC50 values were determined by using either 3-parameter or 4-parameter logistic equations.

The next series deals with CYP2C9 (Homo sapiens (Human), UniProt P11712). As to the kind of experiment: Human liver microsomal CYP inhibition test, CYP2C9. To be noted: human liver microsomes 0.2 mg/mL; substrate Diclofenac. The method, then: as §1, §2, §3, §4, §5, §6, §7, §8, §9, §10
Chain of CYP2C9 (P11712 whole entry): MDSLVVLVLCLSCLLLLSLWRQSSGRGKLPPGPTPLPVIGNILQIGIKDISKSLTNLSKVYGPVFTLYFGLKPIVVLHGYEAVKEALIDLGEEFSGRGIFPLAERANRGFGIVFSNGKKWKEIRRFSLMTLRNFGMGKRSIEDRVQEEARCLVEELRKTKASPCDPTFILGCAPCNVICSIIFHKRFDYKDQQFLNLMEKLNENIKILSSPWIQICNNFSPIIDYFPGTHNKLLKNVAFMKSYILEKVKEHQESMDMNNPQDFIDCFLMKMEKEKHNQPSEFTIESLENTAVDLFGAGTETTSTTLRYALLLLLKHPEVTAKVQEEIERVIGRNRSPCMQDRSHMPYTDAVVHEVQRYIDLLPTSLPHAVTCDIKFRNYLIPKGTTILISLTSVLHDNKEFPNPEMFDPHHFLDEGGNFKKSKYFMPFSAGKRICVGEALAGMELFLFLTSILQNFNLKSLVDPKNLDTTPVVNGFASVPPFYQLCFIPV
In general terms: Microsomes from liver hold many membrane-bound enzymes, among them those of drug oxidation.

The target of a further series is CYP2D6 (Homo sapiens (Human), UniProt P10635). As to the kind of experiment: Human liver microsomal CYP inhibition test, CYP2D6. To be noted: human liver microsomes 0.2 mg/mL; substrate Dextromethorphan. As to the method: as §1, §2, §3, §4, §5, §6, §7, §8, §9, §10
Chain of CYP2D6 (P10635 whole entry): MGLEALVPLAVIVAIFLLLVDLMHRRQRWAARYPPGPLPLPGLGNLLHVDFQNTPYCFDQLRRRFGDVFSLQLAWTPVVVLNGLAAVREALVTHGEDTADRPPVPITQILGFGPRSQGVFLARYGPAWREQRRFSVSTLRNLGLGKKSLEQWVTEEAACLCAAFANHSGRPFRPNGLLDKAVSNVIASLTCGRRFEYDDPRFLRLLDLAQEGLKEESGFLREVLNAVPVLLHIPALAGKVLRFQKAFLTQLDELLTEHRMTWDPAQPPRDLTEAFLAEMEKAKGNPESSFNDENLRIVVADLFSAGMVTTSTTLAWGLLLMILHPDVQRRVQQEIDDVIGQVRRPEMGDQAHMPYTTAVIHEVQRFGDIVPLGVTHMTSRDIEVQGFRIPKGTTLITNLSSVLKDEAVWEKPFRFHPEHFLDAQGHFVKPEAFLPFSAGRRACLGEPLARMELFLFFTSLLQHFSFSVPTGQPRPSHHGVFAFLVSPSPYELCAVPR
The target in the next series is CYP3A-M (Homo sapiens, UniProt P08684). As to the kind of experiment: Human liver microsomal CYP inhibition test, CYP3A-M (midazolam). The note with it: human liver microsomes 0.2 mg/mL; substrate Midazolam. As to the method: as §1, §2, §3, §4, §5, §6, §7, §8, §9, §10
Chain of CYP3A-M (P08684 2-503 limits assumed): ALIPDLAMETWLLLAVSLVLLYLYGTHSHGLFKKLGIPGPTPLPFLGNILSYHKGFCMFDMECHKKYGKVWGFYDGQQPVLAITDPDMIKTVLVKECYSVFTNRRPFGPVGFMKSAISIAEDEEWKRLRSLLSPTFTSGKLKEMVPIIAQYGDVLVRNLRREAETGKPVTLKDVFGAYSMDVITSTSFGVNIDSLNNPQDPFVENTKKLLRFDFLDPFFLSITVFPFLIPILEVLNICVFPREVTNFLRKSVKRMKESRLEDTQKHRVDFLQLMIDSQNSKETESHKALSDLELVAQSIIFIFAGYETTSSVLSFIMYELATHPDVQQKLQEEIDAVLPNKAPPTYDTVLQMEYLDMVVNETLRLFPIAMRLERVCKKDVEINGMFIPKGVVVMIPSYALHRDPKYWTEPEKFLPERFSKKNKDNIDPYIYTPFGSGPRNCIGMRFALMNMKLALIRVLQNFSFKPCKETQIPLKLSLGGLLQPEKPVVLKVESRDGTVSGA
A further series deals with CYP2C19 (Homo sapiens (Human), UniProt P33261). As to the kind of experiment: Human liver microsomal CYP inhibition test, CYP2C19. The note with it: human liver microsomes 0.2 mg/mL; substrate S-mephenytoin. As to the method:
as §1, §2, §4, §5, §6, §7, §8, §9, §10

Another series concerns the target CYP3A (printed CYP3A-M) (Homo sapiens, UniProt P08684). As to the kind of experiment: Human liver microsomal CYP inhibition test, CYP3A-M (midazolam). The method, then:
as §1, §2, §3, §4, §5, §6, §7, §8, §9, §10

[2] abbreviates: human liver microsomes 0.2 mg/mL, substrate Phenacetin, read-out: IC50 (μM) CYP1A2.

In general, IC50 refers to the point on the concentration scale where inhibition reaches its midpoint.

Chain of CYP2C19 (P33261 whole entry): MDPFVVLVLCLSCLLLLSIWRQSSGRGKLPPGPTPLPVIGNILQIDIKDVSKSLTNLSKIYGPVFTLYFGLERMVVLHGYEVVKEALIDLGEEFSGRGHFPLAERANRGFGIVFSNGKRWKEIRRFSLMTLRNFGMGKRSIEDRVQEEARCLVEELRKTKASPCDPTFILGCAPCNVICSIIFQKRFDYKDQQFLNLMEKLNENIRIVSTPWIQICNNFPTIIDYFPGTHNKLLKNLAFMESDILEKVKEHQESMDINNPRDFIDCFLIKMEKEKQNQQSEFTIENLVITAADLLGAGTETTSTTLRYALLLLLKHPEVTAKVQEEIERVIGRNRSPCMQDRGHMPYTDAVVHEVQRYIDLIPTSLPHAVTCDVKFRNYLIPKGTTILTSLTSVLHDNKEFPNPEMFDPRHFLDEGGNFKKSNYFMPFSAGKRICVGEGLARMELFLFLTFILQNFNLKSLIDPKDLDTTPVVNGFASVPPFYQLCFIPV
Chain of CYP1A2 (P05177 whole entry): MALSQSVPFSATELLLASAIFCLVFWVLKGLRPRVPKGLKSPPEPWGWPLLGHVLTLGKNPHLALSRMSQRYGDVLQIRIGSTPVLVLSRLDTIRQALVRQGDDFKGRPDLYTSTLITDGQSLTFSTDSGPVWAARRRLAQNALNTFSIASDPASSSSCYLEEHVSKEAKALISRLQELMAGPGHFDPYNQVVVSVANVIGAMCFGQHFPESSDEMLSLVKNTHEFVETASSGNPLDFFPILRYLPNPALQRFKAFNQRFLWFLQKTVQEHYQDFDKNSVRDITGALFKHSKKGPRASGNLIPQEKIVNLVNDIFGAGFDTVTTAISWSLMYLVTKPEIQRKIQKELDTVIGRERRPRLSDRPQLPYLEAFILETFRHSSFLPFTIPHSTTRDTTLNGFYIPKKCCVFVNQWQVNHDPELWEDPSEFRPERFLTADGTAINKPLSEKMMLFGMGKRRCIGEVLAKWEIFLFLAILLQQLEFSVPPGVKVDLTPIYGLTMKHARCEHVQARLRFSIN
Chain of CYP3A (printed CYP3A-M) (P08684 2-503 limits assumed): as the sequence (P08684 2-503 limits assumed) above

For the molecule “4-((2R,3S,4S,5R)-3-(3,4-difluoro-2-(methoxy-d3)phenyl)-4,5-dimethyl-5-(trifluoromethyl) pyrrolidine-2-carboxamido)pyridinamide [Compound 11]”, in series [1], the “Human liver microsomes T½” value came out at 1.59 h. Further, the “Human liver microsomes Residual (T = 60 min)” value in series [1] is given as 60.1%. For the same molecule, the half-inhibitory concentration (IC50) at CYP1A2 (microsomes) is more than 50 µM; on CYP2C9 it was 41.4 µM; at CYP2D6 it was more than 50 µM; against CYP3A-M it was more than 50 µM.
Take `COc1c([C@H]2[C@H](C(=O)Nc3ccc[n+]([O-])c3)N[C@@](C)(C(F)(F)F)[C@H]2C)ccc(F)c1F` [Compound 7, 3-((2R,3S,4S,5R)-3-(3,4-difluoro-2-methoxyphenyl)-4,5-dimethyl-5-(trifluoromethyl)pyrrolidine-2-carboxamido)pyridine 1-oxide]: the “Human liver microsomes Residual (T = 60 min)” value in series [1] is 74.8%. Also, the half-life at 1 μM in series [1] was more than 2.42 h. For the same molecule, the 50% inhibitory concentration (IC50) on CYP1A2 (setting [2]) was more than 50 µM; against CYP2C9 it was more than 50 µM; against CYP2C19, 2.13 µM; on CYP2D6, more than 50 µM. In addition, the half-maximal inhibitory concentration (IC50) at 10 min at CYP3A (printed CYP3A-M) (probe Midazolam, human liver microsomes 0.2 mg/mL, substrate Midazolam, read-out: IC50 (μM) CYP3A-M) was 30.9 µM.
`COc1c([C@H]2[C@H](C(=O)Nc3cccc(S(N)(=O)=O)c3)N[C@@](C)(C(F)(F)F)[C@H]2C)ccc(F)c1F` [Compound 8, (2R,3S,4S,5R)-3-(3,4-difluoro-2-methoxyphenyl)-4,5-dimethyl-aza-(3-aminosulfonylphenyl)-5-(trifluoromethyl) pyrrolidine-2-carboxamide]: the “Human liver microsomes T½” value in series [1] was more than 2.42 h. Also, the “Human liver microsomes Residual (T = 60 min)” value in series [1] turned out to be 80.3%. The IC50 on CYP1A2 (microsomes) is more than 50 µM; against CYP2C9, 22.9 µM; against CYP2C19, 29 µM; on CYP2D6, 41.6 µM; against CYP3A-M, 26.2 µM.
For `COc1c([C@H]2[C@H](C(=O)Nc3ccnc(C(N)=O)c3)O[C@@](C)(C(F)(F)F)[C@H]2C)ccc(F)c1F` [VX-548, reference compound], in series [1], the “Human liver microsomes Residual (T = 60 min)” value was 70.9%. In addition, in series [1], the half-life at 1 μM turned out to be 2.2 h. For the same molecule, the IC50 on CYP1A2 (setting [2]) was more than 50 µM; against CYP2C9, 17.4 µM; against CYP2C19, 3.74 µM; on CYP2D6 it was more than 50 µM. At CYP3A (printed CYP3A-M) (human, microsomes), this molecule had a half-inhibitory concentration (IC50) at 10 min of more than 50 µM.
